From US8674061B2, “Multiligand constructs” (priority 2008, dated 2014)

How the values were obtained:
Assay type in all cases: binding
Conditions in all cases: relative to 6′SLN = 1, KD based on concentration of sialic acid residues, averaged
[1] = tested on: influenza virus A/Nib/23/89M-MA (H1N1)
[2] = tested on: influenza virus B/Nib/48/90M
[3] = tested on: influenza virus A/Nib/26/90M (H3N2)

Neu5Acα2-6Galβ1-4GlcNAcβ-O— [6′SLN, reference compound]
1: Relative inhibitory activity of tetraligand constructs [1] | Relative inhibitory activity of triligand constructs [1] | Relative inhibitory activity of tetraligand constructs [2] | Relative inhibitory activity of triligand constructs [2] | Relative inhibitory activity of tetraligand constructs [3] | Relative inhibitory activity of triligand constructs [3]
